Source: patent US3995021A, “Antigens of 5,5'alkylphenyl barbituric acids and related hydantoin compounds” (Biological Developments, Inc., priority 1975, dated 1976)

These molecules were tested on antibodies raised with the product of Example 1 (assay: Radioimmune assay: cross-reactivity of other barbituric acids (competitive inhibition of tritiated phenobarbital binding to antibody)). Conditions: at 50% inhibition, 4° C, 2 hours.
With `CCC1(CCC(C)C)C(=O)NC(=O)NC1=O` [Amobarbital] the “Percent Cross-Reactivity” value was 0.6%.
With `CCCC(C)C1(CC)C(=O)NC(=O)NC1=O` (stereo not shown) [Pentobarbital] the “Percent Cross-Reactivity” value was 2.2%.
`C=CCC1(C(C)CCC)C(=O)NC(=O)NC1=O` (stereo not shown) [Secobarbital] was tested, and the “Percent Cross-Reactivity” value was 1.8%.
For `CCCC(C)C1(CC)C(=O)NC(=S)NC1=O` (stereo not shown) [Thiopental], the “Percent Cross-Reactivity” value was 0.2%.
